The target in experiment [1] is PKCβ1 (Homo sapiens, UniProt P05771). Put plainly: Z'-Lyte recombinant enzyme assay, PKCβ1. The experiment is classed as biochemical. How it is done: (§1) Half maximal inhibitory concentrations of Cmpd 1 were determined by Z’-Lyte biochemical assays (Life Technologies SelectScreen™ Kinase Profiling Services, Thermo Fisher Scientific). Kinome selectivity was determined at 1 μM Cmpd 1 concentration against a panel of 119 kinases. The original kinome tree in Fig. 1b was taken from Ref.[68].
PKCβ1, sequence (P05771 whole entry): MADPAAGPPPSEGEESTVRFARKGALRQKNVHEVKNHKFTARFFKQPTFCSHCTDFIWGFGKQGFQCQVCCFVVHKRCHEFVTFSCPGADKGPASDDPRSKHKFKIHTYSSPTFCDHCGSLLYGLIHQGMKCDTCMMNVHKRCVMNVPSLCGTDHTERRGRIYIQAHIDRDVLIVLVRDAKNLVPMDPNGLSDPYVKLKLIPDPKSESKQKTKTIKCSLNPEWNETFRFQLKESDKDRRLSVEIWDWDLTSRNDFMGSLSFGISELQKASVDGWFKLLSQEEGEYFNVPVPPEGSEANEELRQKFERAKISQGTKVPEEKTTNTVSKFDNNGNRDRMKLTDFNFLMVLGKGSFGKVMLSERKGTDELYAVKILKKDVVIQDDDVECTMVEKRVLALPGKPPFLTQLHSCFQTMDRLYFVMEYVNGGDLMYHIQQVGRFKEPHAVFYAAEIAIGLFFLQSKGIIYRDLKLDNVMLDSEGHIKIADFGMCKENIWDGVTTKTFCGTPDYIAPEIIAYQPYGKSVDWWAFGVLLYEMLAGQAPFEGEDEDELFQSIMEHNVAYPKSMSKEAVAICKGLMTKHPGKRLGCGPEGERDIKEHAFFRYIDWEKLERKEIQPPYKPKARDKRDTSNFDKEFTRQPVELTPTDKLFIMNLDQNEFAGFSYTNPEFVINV

The target in experiment [2] is PKCγ (Homo sapiens, UniProt P05129). Kind of experiment: Z'-Lyte recombinant enzyme assay, PKCγ. The experiment is classed as biochemical. Here is the method: as §1
Experiment [3] deals with PKCδ (Homo sapiens, UniProt Q05655). Kind of experiment: Z'-Lyte recombinant enzyme assay, PKCδ. Type of experiment: biochemical. How it is done: as §1
PKCδ, sequence (Q05655 whole entry): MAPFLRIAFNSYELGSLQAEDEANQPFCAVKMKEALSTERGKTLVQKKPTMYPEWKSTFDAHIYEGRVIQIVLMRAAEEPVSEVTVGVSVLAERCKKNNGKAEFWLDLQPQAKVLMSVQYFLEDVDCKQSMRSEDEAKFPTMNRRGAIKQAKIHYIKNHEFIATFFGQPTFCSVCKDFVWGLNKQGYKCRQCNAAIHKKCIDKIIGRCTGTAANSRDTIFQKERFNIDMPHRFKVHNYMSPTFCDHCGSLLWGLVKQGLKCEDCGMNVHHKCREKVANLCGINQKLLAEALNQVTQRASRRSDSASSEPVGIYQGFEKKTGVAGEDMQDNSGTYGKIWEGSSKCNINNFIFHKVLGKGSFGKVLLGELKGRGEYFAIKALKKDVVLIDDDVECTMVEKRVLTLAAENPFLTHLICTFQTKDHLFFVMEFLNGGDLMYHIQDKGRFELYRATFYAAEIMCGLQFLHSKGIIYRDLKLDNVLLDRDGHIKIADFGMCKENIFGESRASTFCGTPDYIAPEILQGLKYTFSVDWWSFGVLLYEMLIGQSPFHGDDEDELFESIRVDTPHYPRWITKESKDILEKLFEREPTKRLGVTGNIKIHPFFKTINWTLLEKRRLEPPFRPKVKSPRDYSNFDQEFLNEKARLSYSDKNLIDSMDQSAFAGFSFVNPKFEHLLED
Experiment [4] deals with T1, PKCι (Homo sapiens, UniProt P41743).
T1 sequence (P41743 1-596): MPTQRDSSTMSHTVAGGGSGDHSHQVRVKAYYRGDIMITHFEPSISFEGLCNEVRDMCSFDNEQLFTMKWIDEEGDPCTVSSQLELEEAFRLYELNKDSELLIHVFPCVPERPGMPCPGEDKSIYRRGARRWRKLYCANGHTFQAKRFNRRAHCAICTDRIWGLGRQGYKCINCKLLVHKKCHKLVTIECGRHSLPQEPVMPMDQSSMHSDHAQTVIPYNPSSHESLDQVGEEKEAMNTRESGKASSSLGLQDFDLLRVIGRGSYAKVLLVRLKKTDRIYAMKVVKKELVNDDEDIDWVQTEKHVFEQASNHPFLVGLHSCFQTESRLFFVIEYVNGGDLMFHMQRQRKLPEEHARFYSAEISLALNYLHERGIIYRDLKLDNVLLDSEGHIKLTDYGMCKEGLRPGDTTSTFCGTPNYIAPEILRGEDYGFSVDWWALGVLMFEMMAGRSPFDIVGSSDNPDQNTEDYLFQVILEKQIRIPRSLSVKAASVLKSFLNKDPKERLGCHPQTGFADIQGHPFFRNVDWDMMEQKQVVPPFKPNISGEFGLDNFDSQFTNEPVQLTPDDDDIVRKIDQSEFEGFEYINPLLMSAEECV
Put plainly: Z'-Lyte recombinant enzyme assay, PKCι. The experiment is classed as biochemical. How it is done:
as §1

The target of experiment [5] is T2, PKCζ (Homo sapiens, UniProt Q05513).
T2 sequence (Q05513 1-592): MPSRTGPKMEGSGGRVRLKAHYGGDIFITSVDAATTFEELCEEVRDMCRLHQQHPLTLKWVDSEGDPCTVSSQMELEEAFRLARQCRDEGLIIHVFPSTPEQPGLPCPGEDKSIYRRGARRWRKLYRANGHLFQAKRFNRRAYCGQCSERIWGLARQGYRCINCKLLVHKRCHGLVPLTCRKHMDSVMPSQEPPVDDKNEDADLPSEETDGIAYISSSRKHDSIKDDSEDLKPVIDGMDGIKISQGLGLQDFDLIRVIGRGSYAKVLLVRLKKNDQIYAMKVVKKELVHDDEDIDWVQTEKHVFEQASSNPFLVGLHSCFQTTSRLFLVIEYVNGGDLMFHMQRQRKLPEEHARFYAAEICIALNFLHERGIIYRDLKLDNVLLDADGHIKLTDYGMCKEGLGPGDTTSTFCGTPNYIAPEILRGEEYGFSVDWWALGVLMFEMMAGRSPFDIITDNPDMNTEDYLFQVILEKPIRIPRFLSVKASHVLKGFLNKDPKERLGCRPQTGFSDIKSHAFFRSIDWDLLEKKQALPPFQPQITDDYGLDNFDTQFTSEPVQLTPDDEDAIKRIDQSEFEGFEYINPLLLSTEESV
Put plainly: Z'-Lyte recombinant enzyme assay, PKCζ. Type of experiment: biochemical. Here is the method: as §1

Experiment [6] has as its system PKC family members. Put plainly: Selectivity within PKC family (enzymatic assays). The experiment is classed as biochemical. Conditions: PKC family members other than α, β, θ, γ. How it is done:
as §1

The subject of experiment [7] is ZSF1 lean and SD rats. Kind of experiment: 7-day food consumption and body weight study, Cmpd 1 chow, ZSF1 lean and SD rats. The experiment is classed as in vivo, rat. As to conditions: 7 days. The text has this:
To evaluate food consumption in different rat strains, cohorts of 10 male ZSF1 obese rats, 8 male ZSF1 lean littermate rats, and 10 age-matched male Sprague Dawley (SD) rats were divided into two groups and fed chow with or without 0.744 g/kg Cmpd 1 (Cmpd 1 chow) for 7 days.

The structures appear in SMILES notation. Bounds are passed on as bounds.

A word on the IC50: it is the concentration at which inhibition is half-maximal. Consider `Cc1ncc(F)c(Nc2n[nH]c3c2CN(C(=O)N2C[C@@H](C)N(CC4CCOCC4)C[C@@H]2C)C3(C)C)n1` [Cmpd 1, 5-[(2S,5R)-2,5-dimethyl-4-(tetrahydro-2H-pyran-4-ylmethyl)piperazin-l-yl]carbonyl-N-(5-fluoro-2-methylpyrimidin-4-yl)-6,6-dimethyl-1,4,5,6-tetrahydropyrrolo[3,4-c]pyrazol-3-amine], for which the IC50 was 11 nM in experiment [1]; 96 nM in experiment [2]; 1550 nM in experiment [3]; greater than 10000 nM in experiment [4]; greater than 10000 nM in experiment [5]. Also, in experiment [6], the “Selectivity against all other PKC family members” value is “greater than 40 fold”. Besides, the Body weight loss result in experiment [7] is listed as “did not”.

The record behind these values is article PMC10560236, “A protein kinase C α and β inhibitor blunts hyperphagia to halt renal function decline and reduces adiposity in a rat model of obesity-driven type 2 diabetes” (Scientific Reports, 2023).
